Measured values reported in ChEMBL document CHEMBL1201862, “PubChem BioAssay data set” (2004).
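Where inhibition never reached the appropriate level, the endpoint shown equals the highest concentration tested. Otherwise, values were interpolated linearly from a five-concentration, 48-hour dose response in 96-well plates. At the GI50, growth is halved.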 The source made the active and inactive calls. Cut-off read from the data, not from the text of the source: active = GI50 up to about 1.1 µM and inactive = higher.

What was measured:
Experiment in all cases: DTP human tumour cell line panel, 48 h
[1] = tested on: TK-10
[2] = tested on: K562
[3] = tested on: NCI-H226
[4] = tested on: SN12C
[5] = tested on: EKVX
[6] = tested on: DLD-1
[7] = tested on: SNB-19
[8] = tested on: HOP-62
[9] = tested on: Hs-578T
[10] = tested on: UO-31
[11] = tested on: OVCAR-5
[12] = tested on: Malme-3M
[13] = tested on: MDA-N
[14] = tested on: HCT-15
[15] = tested on: 786-0
[16] = tested on: PC-3
[17] = tested on: SF-268
[18] = tested on: HCT-116
[19] = tested on: NCI-H522
[20] = tested on: OVCAR-8

## CCOc1ccc2nc(NC(=O)C(=O)C(C(=O)c3ccccc3-c3ccccc3)C3OC(=O)c4ccccc43)sc2c1 (stereo not given)
[1]
  GI50: 16.5 µM (inactive)
[2]
  GI50: 22.3 µM (inactive)
[3]
  GI50: 5.31 µM (inactive)
[4]
  GI50: 11.7 µM (inactive)
[5]
  GI50: 19.8 µM (inactive)
[6]
  GI50: 29.6 µM (inactive)
[7]
  GI50: 14 µM (inactive)
[8]
  GI50: 25.5 µM (inactive)
[9]
  GI50: 34.8 µM (inactive)
[10]
  GI50: 22.4 µM (inactive)
[11]
  GI50: 44.3 µM (inactive)
[12]
  GI50: 13.8 µM (inactive)
[13]
  GI50: 19.6 µM (inactive)
[14]
  GI50: 22.4 µM
[15]
  GI50: 16.5 µM (inactive)
[16]
  GI50: 18.2 µM (inactive)
[17]
  GI50: 19.8 µM (inactive)
[18]
  GI50: 18.4 µM (inactive)
[19]
  GI50: 16.7 µM (inactive)
[20]
  GI50: 8.22 µM (inactive)
